# Laboratory results published in PubChem BioAssay AID588568 (The Scripps Research Institute Molecular Screening Center, 2011).
# Active and inactive are the calls of the source. The rule behind the calls is not given here.
# Biological target: Melanin-concentrating hormone receptor 1 (Homo sapiens) (UniProt Q99705)
# Test: MCHR1 antagonists, dose response, counter-screen for GPR7 antagonist project, cell-based, fluorescence, set 4 (AID 588568)
# Conditions: MCHR1-expressing cells, fluorescence antagonist assay; run 1
row,Compound,IC50
1,COc1cccc(Oc2c(Cl)cnn(-c3cc(C)cc(C)c3)c2=O)c1,> 20 µM (inactive)
2,COc1ccc(Oc2c(Cl)cnn(C3=Nc4ccccc4Sc4ccccc43)c2=O)cc1,> 20 µM (inactive)
3,COc1ccc(Oc2c(Cl)cnn(Cc3ccc(-c4ccccc4)cc3)c2=O)cc1,> 20 µM (inactive)
4,COc1ccc(Oc2c(Cl)cnn(C(C(=O)OC(C)C)c3ccccc3Cl)c2=O)cc1 (stereo not given),> 11.5 µM (inactive)
5,COc1ccc(Oc2c(Cl)cnn(CC(=O)c3ccc(C)cc3C)c2=O)cc1,2.64 µM
6,CC(C)c1ccc(-n2ncc(Cl)c(Oc3ccc(CO)cc3)c2=O)cc1,4.73 µM
7,O=c1c(Oc2ccc(CO)cc2)c(Cl)cnn1Cc1ccc2ccccc2c1,2.23 µM
8,COc1ccc(Oc2c(Cl)cnn(CC3CCCCC3)c2=O)cc1,inactive
9,CN(C)Cc1ccc(Oc2c(Cl)cnn(Cc3cccc4ccccc34)c2=O)cc1,> 20 µM (inactive)
10,COc1ccc(Oc2c(Cl)cnn(-c3ccc(OC)cc3)c2=O)cc1,inactive
11,COc1ccc(Oc2c(Cl)cnn(C(c3ccccc3)c3c(C)noc3C)c2=O)cc1 (stereo not given),> 20 µM (inactive)
12,CCCCOC(=O)C(c1ccccc1Cl)n1ncc(Cl)c(Oc2ccc(OC)cc2)c1=O (stereo not given),inactive
13,COc1ccc(Oc2c(C#N)cnn(Cc3ccccc3C)c2=O)cc1,> 20 µM (inactive)
14,COc1ccc(Oc2c(Cl)cnn(Cc3ccc(C)c4ccccc34)c2=O)cc1,inactive

# Second part, the molecule after the results:
row,IC50,Compound
1,2.41 µM,CCOc1ccc(Oc2c(Cl)cnn(-c3cc(C)cc(C)c3)c2=O)cc1
2,inactive,COc1ccc(Oc2c(Cl)cnn(Cc3ccc(Cl)c(C)c3)c2=O)cc1
3,4.7 µM,COc1ccc(Oc2c(Cl)cnn(Cc3cccc(C)c3)c2=O)cc1
4,2.79 µM,COc1ccc(Oc2ccn(-c3ccc(C)cc3)c(=O)c2Cl)cc1
5,inactive,CC(C)Oc1ccc(Oc2c(Cl)cnn(Cc3cccc4ccccc34)c2=O)cc1
6,7.84 µM,COc1ccc(Oc2c(Cl)cnn(-c3ccc(F)cc3)c2=O)cc1
7,> 20 µM (inactive),COC(=O)c1ccc(Oc2c(Cl)cnn(Cc3cccc4ccccc34)c2=O)cc1
8,4.29 µM,COc1ccc(Oc2c(Cl)cnn(Cc3cc(Cl)ccc3Cl)c2=O)cc1
9,inactive,COc1ccc(Cn2ncc(Cl)c(Oc3ccc(OC)cc3)c2=O)cc1
10,5.16 µM,Cc1cccc(Cn2ncc(Oc3ccc(CO)cc3)c(Cl)c2=O)c1
11,6.4 µM,COc1ccc(Oc2c(Cl)cnn(-c3ccc(Br)cc3)c2=O)cc1
12,9.05 µM,COc1ccc(Oc2c(Cl)cnn(C(CO)c3cccc4ccccc34)c2=O)cc1 (stereo not given)
13,1.66 µM,COc1ccc(Oc2c(Br)nn(-c3cccc(C)c3)c(=O)c2Oc2ccc(OC)cc2)cc1
14,6.5 µM,COc1ccc(Oc2c(Cl)cnn(-c3ccc(OC(C)C)cc3)c2=O)cc1
15,1.11 µM,COc1ccc(Oc2c(Cl)cnn(C3=Nc4cc(Cl)ccc4Oc4ccccc43)c2=O)cc1
16,2.13 µM,O=C(C1CCCN1Cc1ccc(Cl)c(Cl)c1)N1CCN(c2ccc([N+](=O)[O-])cc2)CC1 (stereo not given)
